Measured values published in the CheMixHub viscosity set.
“And” between values parts separate entries of the source, which are not always exact repeats. Equal entries are not always repeated. ± gives the uncertainty stated by the source.

Assay: xn = mol fraction of the nth substance listed

CC(=O)N(C)C + O
Conditions | viscosity
298.15 K, 101 kPa, x1 = 0.0203 | 1.214 ± 0.011 mPa·s
298.15 K, 101 kPa, x1 = 0.025 | 1.265 ± 0.016 mPa·s
298.15 K, 101 kPa, x1 = 0.0502 | 1.653 ± 0.013 mPa·s
298.15 K, 101 kPa, x1 = 0.065 | 1.871 ± 0.024 mPa·s
298.15 K, 101 kPa, x1 = 0.0703 | 1.982 ± 0.015 mPa·s
298.15 K, 101 kPa, x1 = 0.1 | 2.467 ± 0.018 mPa·s
298.15 K, 101 kPa, x1 = 0.1011 | 2.413 ± 0.03 mPa·s
298.15 K, 101 kPa, x1 = 0.12 | 2.754 ± 0.034 mPa·s
298.15 K, 101 kPa, x1 = 0.1203 | 2.797 ± 0.02 mPa·s
298.15 K, 101 kPa, x1 = 0.1495 | 3.161 ± 0.039 mPa·s
298.15 K, 101 kPa, x1 = 0.1497 | 3.223 ± 0.022 mPa·s
298.15 K, 101 kPa, x1 = 0.1698 | 3.471 ± 0.023 mPa·s
298.15 K, 101 kPa, x1 = 0.2003 | 3.774 ± 0.025 mPa·s
298.15 K, 101 kPa, x1 = 0.2004 | 3.728 ± 0.045 mPa·s
298.15 K, 101 kPa, x1 = 0.22 | 3.908 ± 0.025 mPa·s
298.15 K, 101 kPa, x1 = 0.2497 | 4.023 ± 0.026 mPa·s
298.15 K, 101 kPa, x1 = 0.2512 | 3.94 ± 0.048 mPa·s
298.15 K, 101 kPa, x1 = 0.2701 | 4.04 ± 0.026 mPa·s
298.15 K, 101 kPa, x1 = 0.3 | 3.99 ± 0.026 mPa·s
298.15 K, 101 kPa, x1 = 0.3002 | 3.941 ± 0.048 mPa·s
298.15 K, 101 kPa, x1 = 0.32 | 3.917 ± 0.026 mPa·s
298.15 K, 101 kPa, x1 = 0.3501 | 3.692 ± 0.045 mPa·s and 3.761 ± 0.025 mPa·s
298.15 K, 101 kPa, x1 = 0.4002 | 3.426 ± 0.023 mPa·s
298.15 K, 101 kPa, x1 = 0.4009 | 3.341 ± 0.041 mPa·s
298.15 K, 101 kPa, x1 = 0.4503 | 3.059 ± 0.021 mPa·s
298.15 K, 101 kPa, x1 = 0.5003 | 2.69 ± 0.018 mPa·s
298.15 K, 101 kPa, x1 = 0.5018 | 2.606 ± 0.032 mPa·s
298.15 K, 101 kPa, x1 = 0.5999 | 2.09 ± 0.015 mPa·s
298.15 K, 101 kPa, x1 = 0.6031 | 1.995 ± 0.025 mPa·s
298.15 K, 101 kPa, x1 = 0.6505 | 1.777 ± 0.023 mPa·s
298.15 K, 101 kPa, x1 = 0.7 | 1.646 ± 0.012 mPa·s
298.15 K, 101 kPa, x1 = 0.7005 | 1.592 ± 0.02 mPa·s
298.15 K, 101 kPa, x1 = 0.755 | 1.419 ± 0.018 mPa·s
298.15 K, 101 kPa, x1 = 0.8002 | 1.329 ± 0.01 mPa·s
298.15 K, 101 kPa, x1 = 0.8048 | 1.284 ± 0.017 mPa·s
298.15 K, 101 kPa, x1 = 0.8499 | 1.212 ± 0.0097 mPa·s
298.15 K, 101 kPa, x1 = 0.8501 | 1.185 ± 0.016 mPa·s
298.15 K, 101 kPa, x1 = 0.8999 | 1.113 ± 0.0091 mPa·s
298.15 K, 101 kPa, x1 = 0.9049 | 1.083 ± 0.014 mPa·s
298.15 K, 101.33 kPa, x2 = 0.1008 | 1.071 ± 0.027 mPa·s
298.15 K, 101.33 kPa, x2 = 0.2042 | 1.286 ± 0.031 mPa·s
298.15 K, 101.33 kPa, x2 = 0.3008 | 1.582 ± 0.038 mPa·s
298.15 K, 101.33 kPa, x2 = 0.4068 | 2.047 ± 0.047 mPa·s
298.15 K, 101.33 kPa, x2 = 0.5052 | 2.607 ± 0.059 mPa·s
298.15 K, 101.33 kPa, x2 = 0.6026 | 3.31 ± 0.074 mPa·s
298.15 K, 101.33 kPa, x2 = 0.7051 | 3.873 ± 0.086 mPa·s
298.15 K, 101.33 kPa, x2 = 0.8054 | 3.612 ± 0.08 mPa·s
298.15 K, 101.33 kPa, x2 = 0.9239 | 2.342 ± 0.053 mPa·s
298.16 K, 101 kPa, x2 = 0.09 | 1.07 ± 0.01 mPa·s
298.16 K, 101 kPa, x2 = 0.155 | 1.2 ± 0.01 mPa·s
298.16 K, 101 kPa, x2 = 0.235 | 1.4 ± 0.01 mPa·s
298.16 K, 101 kPa, x2 = 0.314 | 1.67 ± 0.02 mPa·s
298.16 K, 101 kPa, x2 = 0.459 | 2.37 ± 0.03 mPa·s
298.16 K, 101 kPa, x2 = 0.604 | 3.4 ± 0.03 mPa·s
298.16 K, 101 kPa, x2 = 0.6607 | 3.75 ± 0.03 mPa·s
298.16 K, 101 kPa, x2 = 0.741 | 3.97 ± 0.03 mPa·s
298.16 K, 101 kPa, x2 = 0.7645 | 3.94 ± 0.03 mPa·s
298.16 K, 101 kPa, x2 = 0.8044 | 3.65 ± 0.03 mPa·s
298.16 K, 101 kPa, x2 = 0.8517 | 3.16 ± 0.03 mPa·s
300.2 K, 101 kPa, x2 = 0.0298 | 1.005 ± 0.025 mPa·s
300.2 K, 101 kPa, x2 = 0.0519 | 1.037 ± 0.026 mPa·s
300.2 K, 101 kPa, x2 = 0.0694 | 1.062 ± 0.026 mPa·s
300.2 K, 101 kPa, x2 = 0.0926 | 1.105 ± 0.026 mPa·s
300.2 K, 101 kPa, x2 = 0.2763 | 1.564 ± 0.031 mPa·s
300.2 K, 101 kPa, x2 = 0.436 | 2.3 ± 0.037 mPa·s
300.2 K, 101 kPa, x2 = 0.555 | 3.112 ± 0.043 mPa·s
300.2 K, 101 kPa, x2 = 0.6259 | 3.615 ± 0.045 mPa·s
300.2 K, 101 kPa, x2 = 0.6897 | 3.957 ± 0.044 mPa·s
300.2 K, 101 kPa, x2 = 0.7347 | 4.029 ± 0.041 mPa·s
300.2 K, 101 kPa, x2 = 0.7737 | 3.926 ± 0.037 mPa·s
300.2 K, 101 kPa, x2 = 0.8015 | 3.741 ± 0.034 mPa·s
300.2 K, 101 kPa, x2 = 0.8783 | 2.782 ± 0.022 mPa·s
300.2 K, 101 kPa, x2 = 0.9515 | 1.599 ± 0.011 mPa·s
303.15 K, 101 kPa, x1 = 0.0203 | 1.076 ± 0.0099 mPa·s
303.15 K, 101 kPa, x1 = 0.0502 | 1.443 ± 0.012 mPa·s
303.15 K, 101 kPa, x1 = 0.0703 | 1.716 ± 0.013 mPa·s
303.15 K, 101 kPa, x1 = 0.1 | 2.112 ± 0.016 mPa·s
303.15 K, 101 kPa, x1 = 0.1203 | 2.379 ± 0.017 mPa·s
303.15 K, 101 kPa, x1 = 0.1497 | 2.719 ± 0.019 mPa·s
303.15 K, 101 kPa, x1 = 0.1698 | 2.915 ± 0.02 mPa·s
303.15 K, 101 kPa, x1 = 0.2003 | 3.156 ± 0.021 mPa·s
303.15 K, 101 kPa, x1 = 0.22 | 3.263 ± 0.022 mPa·s
303.15 K, 101 kPa, x1 = 0.2497 | 3.357 ± 0.022 mPa·s
303.15 K, 101 kPa, x1 = 0.2701 | 3.373 ± 0.022 mPa·s
303.15 K, 101 kPa, x1 = 0.3 | 3.339 ± 0.022 mPa·s
303.15 K, 101 kPa, x1 = 0.32 | 3.286 ± 0.022 mPa·s
303.15 K, 101 kPa, x1 = 0.3501 | 3.169 ± 0.021 mPa·s
303.15 K, 101 kPa, x1 = 0.4002 | 2.914 ± 0.02 mPa·s
303.15 K, 101 kPa, x1 = 0.4503 | 2.628 ± 0.018 mPa·s
303.15 K, 101 kPa, x1 = 0.5003 | 2.336 ± 0.016 mPa·s
303.15 K, 101 kPa, x1 = 0.5999 | 1.852 ± 0.013 mPa·s
303.15 K, 101 kPa, x1 = 0.7 | 1.484 ± 0.011 mPa·s
303.15 K, 101 kPa, x1 = 0.8002 | 1.216 ± 0.0097 mPa·s
303.15 K, 101 kPa, x1 = 0.8499 | 1.114 ± 0.0091 mPa·s
308.15 K, 101 kPa, x1 = 0.065 | 1.428 ± 0.018 mPa·s
308.15 K, 101 kPa, x1 = 0.1 | 1.767 ± 0.015 mPa·s
308.15 K, 101 kPa, x1 = 0.1011 | 1.81 ± 0.023 mPa·s
308.15 K, 101 kPa, x1 = 0.1495 | 2.307 ± 0.029 mPa·s
308.15 K, 101 kPa, x1 = 0.2 | 2.629 ± 0.024 mPa·s
308.15 K, 101 kPa, x1 = 0.2004 | 2.661 ± 0.033 mPa·s
308.15 K, 101 kPa, x1 = 0.2512 | 2.79 ± 0.034 mPa·s
308.15 K, 101 kPa, x1 = 0.3 | 2.763 ± 0.025 mPa·s
308.15 K, 101 kPa, x1 = 0.3002 | 2.784 ± 0.034 mPa·s
308.15 K, 101 kPa, x1 = 0.3501 | 2.667 ± 0.033 mPa·s
308.15 K, 101 kPa, x1 = 0.4 | 2.479 ± 0.023 mPa·s
308.15 K, 101 kPa, x1 = 0.4009 | 2.474 ± 0.031 mPa·s
308.15 K, 101 kPa, x1 = 0.5018 | 1.929 ± 0.024 mPa·s
308.15 K, 101 kPa, x1 = 0.6 | 1.694 ± 0.016 mPa·s
308.15 K, 101 kPa, x1 = 0.6031 | 1.568 ± 0.02 mPa·s
308.15 K, 101 kPa, x1 = 0.6505 | 1.424 ± 0.018 mPa·s
308.15 K, 101 kPa, x1 = 0.7005 | 1.305 ± 0.017 mPa·s
308.15 K, 101 kPa, x1 = 0.755 | 1.183 ± 0.015 mPa·s
308.15 K, 101 kPa, x1 = 0.8048 | 1.085 ± 0.014 mPa·s
308.15 K, 101 kPa, x1 = 0.8501 | 1.003 ± 0.013 mPa·s
308.15 K, 101 kPa, x1 = 0.9049 | 0.922 ± 0.012 mPa·s
318.15 K, 101 kPa, x1 = 0.025 | 0.784 ± 0.011 mPa·s
318.15 K, 101 kPa, x1 = 0.065 | 1.106 ± 0.015 mPa·s
318.15 K, 101 kPa, x1 = 0.1011 | 1.387 ± 0.018 mPa·s
318.15 K, 101 kPa, x1 = 0.12 | 1.533 ± 0.02 mPa·s
318.15 K, 101 kPa, x1 = 0.1495 | 1.718 ± 0.022 mPa·s
318.15 K, 101 kPa, x1 = 0.2004 | 1.944 ± 0.024 mPa·s
318.15 K, 101 kPa, x1 = 0.2512 | 2.05 ± 0.026 mPa·s
318.15 K, 101 kPa, x1 = 0.3002 | 2.056 ± 0.026 mPa·s
318.15 K, 101 kPa, x1 = 0.3501 | 1.986 ± 0.025 mPa·s
318.15 K, 101 kPa, x1 = 0.4009 | 1.853 ± 0.023 mPa·s
318.15 K, 101 kPa, x1 = 0.5018 | 1.553 ± 0.02 mPa·s
318.15 K, 101 kPa, x1 = 0.6031 | 1.274 ± 0.017 mPa·s
318.15 K, 101 kPa, x1 = 0.6505 | 1.178 ± 0.015 mPa·s
318.15 K, 101 kPa, x1 = 0.7005 | 1.085 ± 0.014 mPa·s
318.15 K, 101 kPa, x1 = 0.755 | 0.999 ± 0.013 mPa·s
318.15 K, 101 kPa, x1 = 0.8048 | 0.932 ± 0.013 mPa·s
318.15 K, 101 kPa, x1 = 0.8501 | 0.868 ± 0.012 mPa·s
318.15 K, 101 kPa, x1 = 0.9049 | 0.803 ± 0.011 mPa·s
